This assay has as its target Muscarinic acetylcholine receptor M3 (Homo sapiens, UniProt P20309). Put plainly: Binding affinity for human cloned Muscarinic M3 receptors.

The structures appear in SMILES notation.

Muscarinic acetylcholine receptor M3, sequence (P20309 whole entry): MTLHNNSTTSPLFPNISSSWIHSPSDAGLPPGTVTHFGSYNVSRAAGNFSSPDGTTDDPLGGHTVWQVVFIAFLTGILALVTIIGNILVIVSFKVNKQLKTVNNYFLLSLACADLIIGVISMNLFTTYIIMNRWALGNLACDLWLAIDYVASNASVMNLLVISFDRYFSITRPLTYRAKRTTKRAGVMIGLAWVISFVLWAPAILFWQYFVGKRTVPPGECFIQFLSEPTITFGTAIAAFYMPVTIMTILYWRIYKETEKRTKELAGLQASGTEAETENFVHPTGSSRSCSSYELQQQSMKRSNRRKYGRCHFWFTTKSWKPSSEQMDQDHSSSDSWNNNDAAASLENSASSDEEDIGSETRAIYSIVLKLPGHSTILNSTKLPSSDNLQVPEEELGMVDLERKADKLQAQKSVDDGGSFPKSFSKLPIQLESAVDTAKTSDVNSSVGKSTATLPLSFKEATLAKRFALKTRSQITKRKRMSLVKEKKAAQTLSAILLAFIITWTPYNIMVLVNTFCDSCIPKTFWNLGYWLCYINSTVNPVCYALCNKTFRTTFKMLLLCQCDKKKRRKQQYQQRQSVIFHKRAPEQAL

`CC(C)=CCCN1CCC(NC(=O)[C@](O)(c2ccccc2)C2CCCC2)CC1` registered an inhibition constant (Ki) of 4.2 nM.

The values are drawn from ChEMBL document CHEMBL1132129, “Stereoselective synthesis of a new muscarinic M3 receptor antagonist, J-104129” (Bioorg Med Chem Lett, 1999).
